In patent publication US20050085524A1, “Pyrazolecarboxamides, intermediates therefor and pest control agent comprising the same as active ingredients” (NIHON NOHYAKU CO,. LTD., priority 2001, published 2005):

Assays:
Format in all cases: in vivo
Erypsiphe graminis = assay: Fungicidal and bactericidal effect on wheat powdery mildew (spray on potted wheat, then inoculation); settings: 500 ppm, spray on wheat (Norin No.61), diseased leaf area after 7 to 10 days
Description: Compound (III) disclosed in JP-A-64-25763, tebufenpyrade and various compounds in accordance with the present invention were individually prepared into preparations in the same manner as in Formulation 3 The resulting preparations were diluted to given concentrations and sprayed on the stems and leave of a wheat plant (species: Norin No.61) at the one-leaf to 2-leaf stage as grown in a pot of a 6-cm diameter, at a ratio of 10-ml volume per one pot. After drying the chemical preparations in air, the wheat plant was exposed to the spore collected from wheat leave afflicted with Erypsiphe graminis as the microorganism causing wheat powdery mildew, for inoculation. Then, the plant was left to stand alone in a green house for 7 to 10 days.
Evaluation was carried out follows. The ratio of the diseased area of each leaf was examined to calculate the control ratio according to the following formula. The results are shown in Table 3 (in the table, Compound Nos. correspond to Compound Nos. in Table-1.) • Control ratio (%) • =[(mean ratio of diseased areas in non-treated lot) • −(mean ratio of diseased areas in treated lot)]× • ×100
/ (mean ratio of diseased areas in non-treated lot)

Puccinia recondita = assay: Fungicidal and bactericidal effect on wheat rust (spray on potted wheat seedling, then inoculation); settings: 500 ppm, spray on wheat seedling (Norin No.61), diseased leaf area after 7 days
Description: Compound (III) disclosed in JP-A-64-25763 and various compounds in accordance with the present invention were individually prepared into preparations in the same manner as in Preparation 3. The resulting preparations were diluted to given concentrations and sprayed on the stems and leave of a wheat seedling (species: Norin No.61) at the one-leaf to 2-leaf stage as grown in a pot of a 6-cm diameter, at a ratio of 10-ml volume per one pot. After drying the chemical preparations in air, a spore suspension prepared by grinding the spore collected from wheat leave afflicted with Puccinia recondita as the microorganism causing wheat rust was sprayed on the wheat plant, for inoculation. Then, the plant was left to stand alone in a moist chamber at 22° C. for 15 hours. Subsequently, the plant was left to stand in a water pool in a green house for 7 days.
Evaluation was carried out by examining the ratio of the diseased area of each leaf to calculate the control ratio by the same method as in Test Example 1.
The results are shown in Table 4 (in the table, Compound Nos. correspond to Compound Nos, in Table-1.)

[1] = system: 3rd instar Spodoptera litura larvae; assay: Effect on larvae of Spodoptera litura (cabbage leaf dip); settings: foliar, 120 h, cabbage leaf immersed, 25° C., five days, agonizing insect counted as 0.5 death, read-out: Insecticide Activity (%)
Description: Compound (III) disclosed in JP-A-64-25763 and various compounds in accordance with the present invention were individually prepared into insecticide preparations according to the formulation of Formulation Example 1. The resulting insecticides of the present invention (hydrates) were diluted with water, where chopped cabbage leave (a diameter of 6 cm) were then immersed for one minute. After immersion and subsequent drying in air, the cabbage leave were placed in a plastic cup (inner diameter of 7 cm), where five larvae each of 3rd instar Spodoptera litura were left (twice in duplicate per one concentration). The plastic cup was kept in a thermostat at 25° C. Five days after the larvae were left in the plastic cup, the death and agony of these larvae were examined, to calculate the insecticide activity (%) while an agonizing insect was counted as 0.5 insect death. The results are shown in Table 5 (in the table, Compound Nos. correspond to Compound Nos. in Table-1.)

[2] = system: female adult Tetranychus urticae Koch; assay: Miticidal effect on adult Tetranychus urticae Koch (Phaseolus leaf dip); settings: leaf immersion, 25° C., five days after treatment
Description: The stem part of a Phaseolus seedling with one fresh first leaf remaining thereon was inserted in a test tube (a volume of 50 ml) containing water, where 15 female adult Tetranychus urticae Koch per one leaf was then inoculated. […] Five days after the treatment, the number of the female adult Tetranychus urticae Koch was counted on the Phaseolus leave, to calculate the adult death ratio (%) based on the above results. The results are shown in Table-6 (Compound Nos. in the table below correspond to Compound Nos. in Table-1).

Compound | Control Ratio (%) (Erypsiphe graminis) | Control Ratio (%) (Puccinia recondita) | Adult death ratio (%) ([2]; 500 ppm) | other results
CCCCCCCc1ccc(-c2ccc(CNC(=O)c3cc(CC)nn3C)cc2)cc1 [compound 13] | 100 | – | – | –
CCc1cc(C(=O)NCc2ccc(-c3ccc(OC(C)C)cc3)cc2)n(C)n1 [compound 25] | 100 | 100 | – | –
Cc1nn(C)c(C(=O)NC(C)c2ccc(-c3ccccc3)cc2)c1Br (stereo not shown) [Compound (III)] | 0 | 0 | 15 | inhibition at 500 ppm [1]: 20%
Cn1nc2c(c1C(=O)NCc1ccc(-c3ccc(OC(F)(F)F)cc3)cc1)CCCC2 [compound 106] | – | – | 100 | –
CCCCCc1ccc(-c2ccc(CNC(=O)c3cc(CC)nn3C)cc2)cc1 [Compound No. 11] | – | – | 100 | –
CCc1cc(C(=O)NCc2ccc(-c3ccc(OC(F)F)cc3)cc2)n(C)n1 [Compound No. 30, N-[4-(4-Difluoromethoxyphenyl)benzyl]-1-methyl-3-ethylpyrazole-5-carboxamide] | 100 | 100 | 100 | –
CCc1nn(C)c(C(=O)NCc2ccc(C(C)(C)C)cc2)c1Cl [tebufenpyrade] | 77 | – | – | Adult death ratio (%) ([2]; 0.8 ppm): 0%; Adult death ratio (%) ([2]; 3.1 ppm): 80%; Adult death ratio (%) ([2]; 12.5 ppm): 100%
